Assay results from patent publication US11452781B2, “Method of preventing and treating type 1 diabetes, allograft rejection and lung fibrosis (by targeting the ATP/P2X7R axis)” (CHILDREN'S MEDICAL CENTER CORPORATION, priority 2013, dated 2022).
Where “and” joins values, the source holds several entries; their conditions need not be identical. Equal entries are not always repeated. Entries after “also recorded” stand apart in the source; their conditions may differ.

Assays:
islet allografts = test: Islet allograft pathology, RT-PCR transcripts, insulin and glucagon content; assay type: in vivo, mouse
Procedure: The presence of […] was then analyzed in the graft infiltrate by quantification, via RT-PCR, by assessing intra-graft Tbet and Rorc mRNA expression.

NOD mice = test: Diabetes onset in NOD mice (prevention); assay type: in vivo, mouse
Procedure: Untreated NOD mice invariably developed diabetes by 15-20 weeks of age (FIGS. 5A-5E). […] Rapamycin (0.1 mg/kg for 10 days) treatment was again synergistic with oATP treatment, inducing a further delay in the onset of diabetes (FIG. 7) with 70% of mice protected from diabetes at 25 weeks, while rapamycin treatment alone was ineffective in delaying diabetes in NOD mice (FIG. 7). This group of experiments confirmed that the ATP/P2X7R axis is indeed relevant to allo- and autoimmune responses in vivo and that P2X7R targeting can be viewed as a novel strategy to curb both responses.
Consequently, NOD mice were treated with oATP.

[1] = test system: C57BL/6 mice transplanted with BALB/c hearts; assay type: in vivo, mouse; parameters: long-term cardiac transplant survival (>100 days), share of recipients: dose or concentration left out as unconfirmed; conditions: oATP i.p. daily for 14 days
Procedure: The effect of P2X7R targeting in preventing cardiac transplant rejection was tested using the P2X7R inhibitor oATP.
The effect of P2X7R targeting in preventing cardiac transplant rejection was tested by using the P2X7R inhibitor oATP.

naïve CD4+ T-cells = test: CFSE T-cell proliferation assay, anti-CD3-Ig/anti-CD28-Ig; assay type: cell-based, mouse; conditions: 100 μM oATP, 4 days (96 hours)
Procedure: The effect of P2X7R targeting was tested by treatment with oATP during T-cell activation. […] Similarly, in a T-cell proliferation assay, CFSE-labeled naïve CD4^+ T-cells were stimulated for 4 days with 0.5 μg/ml anti-CD3-Ig and anti-CD28-Ig; treatment with 100 μM oATP diminished CD4^+ T-cell proliferation (FIG. 5B, right panel) compared to controls (FIG. 5B, left panel).
To address the mechanisms underlying P2X7R targeting mediated inhibition of cardiac transplant rejection, the inventors analyzed the effect of P2X7R targeting on T-cell activation and Th1/Th17 differentiation in vitro. […] The effect of in vitro P2X7R targeting with oATP during CD4+ T-cell activation was tested. […] Second, in a T-cell proliferation assay, carboxyfluorescein diacetate succinimidyl ester-labeled naïve CD4+ T cells were stimulated for 96 hours with 0.5 μg/mL anti-CD3-Ig and anti-CD28-Ig, and treatment with 100 μM oATP diminished CD4+ T cell proliferation in comparison with controls. […] P2X7R targeting with oATP inhibited Th0 conversion into both Th1 and Th17, as assessed by the percentage of IFN-γ+ and IL-17+ cells, respectively. […] In a Th1/Th17 generation assay, pmY-P2X7R CD4+ T cells seemed to display increased differentiation capacity in comparison with pmY-mock CD4+ T cells, as assessed by T-bet and ROR-γ expression.

ABM CD4+ TCR-Tg T cells = test: Alloantigen-specific ABM CD4+ TCR-Tg T cells, bm12 hearts into C57BL/6 Rag-/- mice; assay type: in vivo, mouse
From the text: To address whether the inhibition of the effector T-cell compartment is related to reduced priming and expansion of alloreactive T cells or to their increased apoptosis, alloreactive-specific T cells were tracked in a transgenic model of cardiac transplantation. Bm12 hearts were transplanted into C57BL/6 Rag−/− mice, and 3×10^6 ABM CD4+ TCR-Tg T cells (specific for bm12 major histocompatibility complex class II antigens) were subsequently adoptively transferred into cardiac transplant recipients.

C57BL/6 splenocytes = test: Apoptosis of allo-challenged splenocytes (annexin V, FACS); conditions: oATP, 24 h
Procedure: To confirm the data obtained in vivo, the effect of targeting P2X7R in vitro was evaluated using alloimmune-relevant assays. Responder splenocytes from C57BL/6 mice were challenged with irradiated stimulator splenocytes from BALB/c mice. The numbers of cells producing IFN-γ and IL-4 were evaluated in an ELISPOT assay in the presence of increasing concentrations of oATP.

STAT3 = test: Phosphorylation of T-cell signaling molecules in activated CD4+ T cells (Luminex/Milliplex, Western blot); assay type: cell-based, mouse; conditions: 60 minutes after activation
Procedure: (§1) 60 minutes after anti-CD3-Ig and anti-CD28-Ig mediated activation, cells were lysed and the phosphorylation status of CREB, Erk, Akt, JNK, p38, p70 S6 Kinase, STAT3, and STAT5A/B was assessed using the Millipore Milliplex Cell Signaling Assay. […] Data were confirmed by western blot (FIG. 6D).
(§2) Several key components of T-cell receptor signaling involved in the alloimmune response were examined, and the phosphorylation kinetics following in vitro anti-CD3-Ig/anti-CD28-Ig-mediated CD4+ T-cell activation was evaluated by using the Luminex assay. […] The inventors first confirmed that Colivelin (Col) was able to restore the activation-induced phosphorylation of STAT3 in a dose-dependent manner in oATP-treated CD4+ T cells by Western blotting. […] The effect of oATP and Colivelin on STAT3 phosphorylation and T-cell function was also evaluated following cardiac transplantation.

[2] = as above; assay type: cell-based, mouse
Procedure: as §1, §2

[3] = test system: C57BL/6 mice transplanted with BALB/c islets; test: Allogeneic islet transplantation, BALB/c islets into diabetic C57BL/6 mice: graft survival; assay type: in vivo, mouse

For periodate-oxidized ATP [oATP], the “islet structure, insulin and glucagon staining” value (islet allografts; day 14 (oATP), long-term (oATP+rapamycin)) was “preserved insulin staining; also recorded: maintained”, the “reduction of Tbet mRNA expression vs untreated” value (islet allografts; day 14, n=3) was “threefold decrease” and the “delay of diabetes onset” value (NOD mice; 4-week-old NOD mice, daily i.p. for 30 days (early prevention)) was “delays diabetes onset”. For the same substance, the “delay of diabetes onset” value (NOD mice; 10-week-old NOD mice (late prevention)) was “delay”, the “mice protected from diabetes at 25 weeks of age” value (NOD mice; 10-week-old NOD mice, oATP 250 μg i.p. daily 14 days, Rapamycin 0.1 mg/kg 10 days) was 50% and the “long-term cardiac transplant survival (>100 days), share of recipients” value [1] was 80%. The “CD4+ T-cell proliferation” value (naïve CD4+ T-cells) was “diminished; also recorded: suppressed”, the “TCR-Tg T-cell apoptosis” value (ABM CD4+ TCR-Tg T cells; 4 days following adoptive transfer) was “without substantial differences” and the “ABM CD4+ TCR-Tg T-cell proliferation (CFSE dilution)” value (ABM CD4+ TCR-Tg T cells; mouse, in vivo) was “decrease”. The “numbers of Teffs and Th17 cells within the Tg population” value (ABM CD4+ TCR-Tg T cells; mouse, in vivo) was “marked reduction”, the “numbers of ABM CD4+ TCR-Tg T cells” value (ABM CD4+ TCR-Tg T cells; seven days posttransplantation) was “reduced numbers” and the “percentage of apoptotic cells (annexin V+)” value (C57BL/6 splenocytes) was “no increase”. The “activation-induced STAT3 phosphorylation” value (STAT3) was “reduced level; also recorded: prevented phosphorylation of STAT3; also recorded: significant inhibition”, the “phosphorylation of JNK/SAPK1, p70/S6, or STAT5” value [2] was “unaffected” and the “islet allograft survival (in words)” value ([3]; mouse, in vivo) was “prolongs graft survival”. The “mice with long-term graft function at 100 days (of n)” value ([3]; mouse, in vivo) was 3 out of 10 and 3 of 10 and the “islet allograft mean survival time (MST)” value ([3]; oATP daily i.p. 14-15 days, rapamycin 0.1 mg/kg 10 days) was 22 days.
